Laboratory results taken from patent publication US4436751A, “Nitrobenzyl monates antibacterial compounds” (Beecham Group Limited, priority 1980, dated 1984).
In brackets after ≈: the same amount, converted by molar mass. Like-named read-outs stand apart in the source and are kept apart here.

Key:
Assay type in all cases: cell-based
[1] = tested on: M. hyorhinis ATCC 23234; assay: Anti-mycoplasmal MIC in vitro, Friis broth agarose (Table 1); conditions: Mesomycoplasma hyorhinis, ATCC23234, 144 h
[2] = tested on: Staph. aureus Oxford; assay: Human bacteria MIC, nutrient agar with chocolated horse blood (Table 3); conditions: Staphylococcus aureus
Description: (§1) The values were determined by serial dilutions in nutrient agar with 5% chocolated horse blood after incubations for 18 hours at 37° C.

[3] = tested on: Staph. aureus W2827; assay: as above; conditions: Staphylococcus aureus
Description: as §1

[4] = tested on: Bacillus subtilis 6633; assay: as above
Description: as §1

[5] = tested on: Pasteurella multocida 1633; assay: as above
Description: as §1

[6] = tested on: Ps. aeruginosa NCTC 10662; assay: as above; conditions: Pseudomonas aeruginosa
Description: as §1

[7] = tested on: E. Coli NCTC 10418; assay: as above; conditions: Escherichia coli
Description: as §1

[8] = tested on: Strep. faecalis 1; assay: as above
Description: as §1

[9] = tested on: Corynebacterium xerosis 9755; assay: as above
Description: as §1

[10] = tested on: Sarcina lutea 8340; assay: as above
Description: as §1

[11] = tested on: Staph. aureus Russell; assay: as above; conditions: Staphylococcus aureus
Description: as §1

[12] = tested on: Haemophilus influenzae Q1; assay: as above
Description: as §1

[13] = tested on: P. mirabilis 889; assay: as above
Description: as §1

[14] = tested on: Strep. pyogenes R80/421-A; assay: as above; conditions: Streptococcus pyogenes
Description: as §1

[15] = tested on: K. aerogenes A; assay: as above; conditions: Klebsiella aerogenes
Description: as §1

[16] = tested on: M. suipneumoniae LABER; assay: Anti-mycoplasmal MIC in vitro, Friis broth agarose (Table 1); conditions: Mesomycoplasma hyopneumoniae, 144 h
[17] = tested on: Staph. aureus Oxford; assay: Veterinary bacteria MIC, Diagnostic Sensitivity Test Agar (Table 2); conditions: Staphylococcus aureus
Description: (§2) The values were determined using a two fold serial dilutions in Diagnostic Sensitivity Test Agar with an inoculum of 10^4 organisms and incubation for 18 hours at 37° C.

[18] = tested on: Staph. aureus B4; assay: as above; conditions: Staphylococcus aureus
Description: as §2

[19] = tested on: Bord. bronchiseptica BO8; assay: as above; conditions: Bordetella bronchiseptica, BO8, 18 h
Description: as §2

[20] = tested on: Strep. dylgalactiae SPD1; assay: as above
Description: as §2

[21] = tested on: S. dublin S7; assay: as above; conditions: Salmonella enterica, S7, 18 h
Description: as §2

[22] = tested on: E. Coli E1; assay: as above; conditions: Escherichia coli, 18 h
Description: as §2

[23] = tested on: Bord. bronchiseptica BO9; assay: as above; conditions: Bordetella bronchiseptica
Description: as §2

[24] = tested on: Strep. suis (group D) SPS11; assay: as above; conditions: Streptococcus suis
Description: as §2

[25] = tested on: E. Coli NCTC 10418; assay: as above; conditions: Escherichia coli, NCTC10418, 18 h
Description: as §2

[26] = tested on: Strep. uberis SPO1; assay: as above; conditions: Streptococcus uberis
Description: as §2

[27] = tested on: Past. multocida PA2; assay: as above; conditions: Pasteurella multocida
Description: as §2

[28] = tested on: M. gallisepticum S6; assay: Anti-mycoplasmal MIC in vitro, Friis broth agarose (Table 1); conditions: Mycoplasmoides gallisepticum
[29] = Pasteurella multocida 1633, nutrient agar 5% chocolated horse blood, 18 hours 37° C., read-out: MIC
[30] = Enterococcus faecalis, Strep. faecalis 1, nutrient agar 5% chocolated horse blood, 18 hours 37° C., read-out: MIC
[31] = Haemophilus influenzae Q1, nutrient agar 5% chocolated horse blood, 18 hours 37° C., read-out: MIC
[32] = Strep. pyogenes R80/421-A, nutrient agar 5% chocolated horse blood, 18 hours 37° C., read-out: MIC
[33] = Staph. aureus B4, DST Agar, 10^4 organisms, 18 hours 37° C., read-out: MIC
[34] = Bord. bronchiseptica BO9, DST Agar, 10^4 organisms, 18 hours 37° C., read-out: MIC
[35] = Strep. uberis SPO1, DST Agar, 10^4 organisms, 18 hours 37° C., read-out: MIC
[36] = Pasteurella multocida, 1633, 18 h
[37] = Corynebacterium xerosis, 9755, 18 h
[38] = Haemophilus influenzae, Q1, 18 h

SMILES | MIC [1] | MIC [16] | MIC ([17]; 18 h) | MIC [19] | MIC ([20]; 18 h) | MIC [21] | MIC [22] | MIC [25] | MIC ([2]; 18 h) | MIC ([3]; W2827, 18 h) | MIC ([4]; Bacillus subtilis, 6633, 18 h) | MIC ([6]; NCTC10662, 18 h) | MIC ([7]; NCTC10418, 18 h) | MIC [9, 37] | MIC ([10]; Micrococcus luteus, 8340, 18 h) | MIC ([11]; 18 h) | MIC ([13]; Proteus mirabilis, 889, 18 h) | MIC ([15]; 18 h) | MIC ([24]; 18 h) | MIC ([27]; PA2, 18 h) | also measured
C/C(=C\C(=O)OCc1cccc([N+](=O)[O-])c1C)CC1OCC(CC2OC2C(C)C(C)O)C(O)C1O (stereo not shown) [Example 8, 2-methyl-3-nitrobenzyl monate A] | 0.1 µg/mL (≈ 0.203 µM) | 0.1 µg/mL (≈ 0.203 µM) | 0.312 µg/mL (≈ 0.632 µM) | 40 µg/mL (≈ 81 µM) | 0.312 µg/mL (≈ 0.632 µM) | > 80 µg/mL | > 80 µg/mL | > 80 µg/mL | – | – | – | – | – | – | – | – | – | – | – | – | MIC ([2]; Staph. aureus Oxford, nutrient agar 5% chocolated horse blood, 18 hours 37° C., read-out: MIC): 2.5 µg/mL (≈ 5.07 µM); MIC ([3]; Staph. aureus W2827, nutrient agar 5% chocolated horse blood, 18 hours 37° C., read-out: MIC): 2.5 µg/mL (≈ 5.07 µM); MIC ([4]; Bacillus subtilis 6633, nutrient agar 5% chocolated horse blood, 18 hours 37° C., read-out: MIC): 0.25 µg/mL (≈ 0.507 µM); MIC [5, 29]: 2.5 µg/mL (≈ 5.07 µM); MIC ([6]; NCTC10662, Ps. aeruginosa NCTC 10662, nutrient agar 5% chocolated horse blood, 18 hours 37° C., read-out: MIC): > 100 µg/mL; MIC ([7]; NCTC10418, E. coli NCTC 10418, nutrient agar 5% chocolated horse blood, 18 hours 37° C., read-out: MIC): > 100 µg/mL; MIC [8, 30]: 50 µg/mL (≈ 101 µM); MIC ([9]; Corynebacterium xerosis 9755, nutrient agar 5% chocolated horse blood, 18 hours 37° C., read-out: MIC): > 100 µg/mL; MIC ([10]; Micrococcus luteus, Sarcina lutea 8340, nutrient agar 5% chocolated horse blood, 18 hours 37° C., read-out: MIC): > 100 µg/mL; MIC ([11]; Staph. aureus Russell, nutrient agar 5% chocolated horse blood, 18 hours 37° C., read-out: MIC): 2.5 µg/mL (≈ 5.07 µM); MIC [12, 31]: 0.5 µg/mL (≈ 1.01 µM); MIC ([13]; Proteus mirabilis, P. mirabilis 889, nutrient agar 5% chocolated horse blood, 18 hours 37° C., read-out: MIC): > 100 µg/mL; MIC [14, 32]: 0.25 µg/mL (≈ 0.507 µM); MIC ([15]; K. aerogenes A, nutrient agar 5% chocolated horse blood, 18 hours 37° C., read-out: MIC): > 100 µg/mL; MIC [18, 33]: 0.625 µg/mL (≈ 1.27 µM); MIC [23, 34]: 5 µg/mL (≈ 10.1 µM); MIC ([24]; Strep. suis (group D) SPS11, DST Agar, 10^4 organisms, 18 hours 37° C., read-out: MIC): 5 µg/mL (≈ 10.1 µM); MIC [26, 35]: 0.07 µg/mL (≈ 0.142 µM); MIC ([27]; Past. multocida PA2, DST Agar, 10^4 organisms, 18 hours 37° C., read-out: MIC): 1.25 µg/mL (≈ 2.53 µM); MIC ([28]; 144 h, M. gallisepticum S6, in vitro, 6 days 37° C., read-out: MIC): 5 µg/mL (≈ 10.1 µM)
C/C(=C\C(=O)OCc1ccc([N+](=O)[O-])c([N+](=O)[O-])c1)CC1OCC(CC2OC2C(C)C(C)O)C(O)C1O (stereo not shown) [Example 9, 3,4-dinitrobenzyl monate A] | 0.25 µg/mL (≈ 0.477 µM) | 0.25 µg/mL (≈ 0.477 µM) | 0.312 µg/mL (≈ 0.595 µM) | 10 µg/mL (≈ 19.1 µM) | 0.07 µg/mL (≈ 0.133 µM) | > 80 µg/mL | 80 µg/mL (≈ 153 µM) | 80 µg/mL (≈ 153 µM) | 1 µg/mL (≈ 1.91 µM) | 1 µg/mL (≈ 1.91 µM) | 0.5 µg/mL (≈ 0.953 µM) | > 100 µg/mL | 50 µg/mL (≈ 95.3 µM) | > 100 µg/mL | > 100 µg/mL | 2.5 µg/mL (≈ 4.77 µM) | 50 µg/mL (≈ 95.3 µM) | 100 µg/mL (≈ 191 µM) | 5 µg/mL (≈ 9.53 µM) | 0.156 µg/mL (≈ 0.297 µM) | MIC [5, 36]: 2.5 µg/mL (≈ 4.77 µM); MIC ([8]; Enterococcus faecalis, 1, 18 h): 25 µg/mL (≈ 47.7 µM); MIC [12, 38]: 0.25 µg/mL (≈ 0.477 µM); MIC ([14]; R80/421A, 18 h): 0.25 µg/mL (≈ 0.477 µM); MIC ([18]; B4, 18 h): 0.625 µg/mL (≈ 1.19 µM); MIC ([23]; BO9, 18 h): 5 µg/mL (≈ 9.53 µM); MIC ([26]; SPO1, 18 h): 0.156 µg/mL (≈ 0.297 µM); MIC ([28]; S6, 144 h): 5 µg/mL (≈ 9.53 µM)
C/C(=C\C(=O)OCc1ccc([N+](=O)[O-])cc1[N+](=O)[O-])CC1OCC(CC2OC2C(C)C(C)O)C(O)C1O (stereo not shown) [Example 10, 2,4-dinitrobenzyl monate A] | 0.5 µg/mL (≈ 0.953 µM) | 0.5 µg/mL (≈ 0.953 µM) | 0.625 µg/mL (≈ 1.19 µM) | 40 µg/mL (≈ 76.3 µM) | 0.312 µg/mL (≈ 0.595 µM) | > 80 µg/mL | > 80 µg/mL | > 80 µg/mL | 1 µg/mL (≈ 1.91 µM) | 2.5 µg/mL (≈ 4.77 µM) | 0.25 µg/mL (≈ 0.477 µM) | > 100 µg/mL | > 100 µg/mL | > 100 µg/mL | > 100 µg/mL | 2.5 µg/mL (≈ 4.77 µM) | > 100 µg/mL | > 100 µg/mL | 5 µg/mL (≈ 9.53 µM) | 0.625 µg/mL (≈ 1.19 µM) | MIC [5, 36]: 2.5 µg/mL (≈ 4.77 µM); MIC ([8]; Enterococcus faecalis, 1, 18 h): > 100 µg/mL; MIC [12, 38]: 0.5 µg/mL (≈ 0.953 µM); MIC ([14]; R80/421A, 18 h): 0.25 µg/mL (≈ 0.477 µM); MIC ([18]; B4, 18 h): 0.625 µg/mL (≈ 1.19 µM); MIC ([23]; BO9, 18 h): 5 µg/mL (≈ 9.53 µM); MIC ([26]; SPO1, 18 h): 0.312 µg/mL (≈ 0.595 µM); MIC ([28]; S6, 144 h): 5 µg/mL (≈ 9.53 µM)
C/C(=C\C(=O)OCc1ccc([N+](=O)[O-])cc1Cl)CC1OCC(CC2OC2C(C)C(C)O)C(O)C1O (stereo not shown) [Example 11, 2-chloro-4-nitrobenzyl monate A] | 0.5 µg/mL (≈ 0.973 µM) | 1 µg/mL (≈ 1.95 µM) | – | 10 µg/mL (≈ 19.5 µM) | – | 80 µg/mL (≈ 156 µM) | 80 µg/mL (≈ 156 µM) | 80 µg/mL (≈ 156 µM) | 1 µg/mL (≈ 1.95 µM) | 1 µg/mL (≈ 1.95 µM) | 0.5 µg/mL (≈ 0.973 µM) | > 100 µg/mL | > 100 µg/mL | > 100 µg/mL | > 100 µg/mL | 1 µg/mL (≈ 1.95 µM) | > 100 µg/mL | > 100 µg/mL | 0.625 µg/mL (≈ 1.22 µM) | 0.156 µg/mL (≈ 0.304 µM) | MIC [5, 29]: 5 µg/mL (≈ 9.73 µM); MIC [8, 30]: 50 µg/mL (≈ 97.3 µM); MIC [12, 31]: 2.5 µg/mL (≈ 4.86 µM); MIC [14, 32]: 1 µg/mL (≈ 1.95 µM); MIC ([17]; Staph. aureus Oxford, DST Agar, 10^4 organisms, 18 hours 37° C., read-out: MIC): 0.07 µg/mL (≈ 0.136 µM); MIC [18, 33]: 0.156 µg/mL (≈ 0.304 µM); MIC ([20]; Strep. dylgalactiae SPD1, DST Agar, 10^4 organisms, 18 hours 37° C., read-out: MIC): 0.156 µg/mL (≈ 0.304 µM); MIC [23, 34]: 2.5 µg/mL (≈ 4.86 µM); MIC [26, 35]: ≤ 0.019 µg/mL; MIC ([28]; S6, 144 h): 2.5 µg/mL (≈ 4.86 µM)
